{
  "source": "patent US11071727B2",
  "about": "“Therapeutic targeting of proteolytic cleavage of the mixed lineage leukemia gene product (MLL1) by taspase1 using kinase inhibitors” (Northwestern University, priority 2018, dated 2021)",
  "key": {"[1]": {"tested_on": "MLL1 cleavage by taspase1", "test": "in vitro taspase1 cleavage assay on lysates of pretreated taspase1 KO cells", "assay_type": "biochemical, human", "details": "293T taspase1 KO cells pretreated 30 hours with CX-4945 (3 μM) or TTP22 (10 μM), compared with DMSO control", "method": "FIG. 5. CKII inhibitors selectively increase full-length MLL1 protein levels by decreasing the phosphorylation of MLL1 near the cleavage sites. (A) Conservation of the sequences flanking MLL1-CS2, MLL2 and TFIIA cleavage sites and phosphorylated serine and threonine residues after the cleavage sites (highlighted in red). (B) and (C) 293T cells were transfected with vector control (VT), WT, AA or DD reporter constructs of MLL1-p75 or TFIIA. Western blot was performed with anti-Flag antibody for MLL1 (p75: FL, p47: cleaved) or TFIIA (p54: FL, p47: cleaved). (D) and (E) 293T cells were transfected with WT or AA reporter constructs of MLL1-p75 or TFIIA in the presence or absence of HA-taspase1. Western blot was performed with anti-Flag antibody for MLL1 or TFIIA, or anti-HA antibody for taspase1. (F) 293T cells were infected with shRNAs against CKIIα or CKIIα′. Western blot was performed with anti-MLL1C antibody for MLL1 full-length protein levels, and CKIIα or CKIIα′ for knockdown efficiency. (G) 293T cells were treated with DMSO or 10 μM CX-4945 for 30 hours. Cells were harvested and lysed for Western blot against MLL1, MLL2 or TFIIA using β-tubulin as the loading control. […]\nin vitro taspase1 cleavage assay. […] Cleavage efficiency was detected by western blot against MLL1C and TFIIA using Hsp90 as the loading control."}, "MLL-AF9 leukemia": {"tested_on": "MLL-AF9 leukemia", "test": "MLL-AF9 syngeneic leukemia mouse model", "assay_type": "in vivo", "method": "FIG. 7. CKII inhibition delays the leukemia progression and improves survival of MLL-AF9 mice and MOLM13 human leukemia mice. (A) Timeline of the MLL-AF9 leukemia mouse model and CKII inhibitor treatment. Drug treatments were started at day 10 after transplantation. (B) Kaplan-Meier survival curves of secondary transplanted C57BL/6 mice after vehicle and CX-4945 treatment at day 10. Vehicle or CX-4945 (50 mg/kg or 75 mg/kg) were administered twice daily by oral gavage for a total of twenty treatments. Leukemia was confirmed at the endpoint for each transplant mouse. The number (n) indicates the number of mice in each group. The p values were calculated using the log rank test. (C) Timeline of the MOLM13 human leukemia xenograft mice. Drug treatments were started at day 5 after transplantation. (D) Kaplan-Meier survival curves of NSGS mice after vehicle and CX-4945 treatment. Vehicle or CX-4945 (50 mg/kg) were administered twice daily by oral gavage for a total of twenty treatments. Leukemia was confirmed at the endpoint for each transplant mouse by flow cytometry, H&E staining and histology analysis. The number (n) indicates the number of mice in each group. The p value was calculated using the log rank test. (E) Taspase1 cleavage regulation of MLL1 mediated by CKII phosphorylation. MLL1 cleavage by taspase1 primed the protein to degradation pathway. […]"}},
  "data": [
    {"smiles": "O=C(O)c1ccc2c(c1)nc(Nc1cccc(Cl)c1)c1ccncc12", "note": "[CX-4945, 5-(3-chlorophenylamino)benzo[c][2,6]naphthyridine-8-carboxylic acid]", "values": [
      {"measurement": "cleavage efficiency by recombinant taspase1 protein", "setting": "[1]", "result": "cleavage efficiency was significantly diminished"},
      {"measurement": "leukemia progression and survival", "setting": "MLL-AF9 leukemia; C57BL/6 mice, 50 mg/kg or 75 mg/kg twice daily by oral gavage, twenty treatments from day 10", "result": "significantly delayed the leukemia progression and improved the survival"},
      {"measurement": "weight of the mice", "setting": "MLL-AF9 leukemia; MLL-AF9 syngeneic mouse model, compared with vehicle control group", "result": "did not affect the weight of the mice"}
    ]}
  ]
}
